Measurements as given in BigSolDB 2.1.

`CN1CCC(N(Cc2cccs2)c2ccccc2)CC1` gave a solubility (mole fraction) (in DMF, 278.15 K) of 0.00706, a solubility (mole fraction) (in DMF, 283.15 K) of 0.00795 and a solubility (mole fraction) (in DMF, 288.15 K) of 0.00881. The solubility (mole fraction) (in DMF, 293.15 K) was 0.00971, the solubility (mole fraction) (in DMF, 298.15 K) was 0.0108 and the solubility (mole fraction) (in DMF, 303.15 K) was 0.0119. It also gave a solubility (mole fraction) (in DMF, 308.15 K) of 0.0132, a solubility (mole fraction) (in DMF, 313.15 K) of 0.0143 and a solubility (mole fraction) (in DMF, 318.15 K) of 0.0158. For the same compound, the solubility (mole fraction) (in DMF, 323.15 K) was 0.0175, the solubility (mole fraction) (in water, 278.15 K) was 2.63e-05 and the solubility (mole fraction) (in water, 283.15 K) was 2.84e-05. For the same compound, the solubility (mole fraction) (in water, 288.15 K) was 3.06e-05, the solubility (mole fraction) (in water, 293.15 K) was 3.36e-05 and the solubility (mole fraction) (in water, 298.15 K) was 3.72e-05. For the same compound, the solubility (mole fraction) (in water, 303.15 K) was 4.16e-05, the solubility (mole fraction) (in water, 308.15 K) was 4.62e-05 and the solubility (mole fraction) (in water, 313.15 K) was 5.09e-05. The solubility (mole fraction) (in water, 318.15 K) was 5.66e-05 and the solubility (mole fraction) (in water, 323.15 K) was 6.3e-05.
